Laboratory results from patent US20250382280A1, “PYRAZOLE DERIVATIVES FOR THE INHIBITION OF PHAGOCYTOSIS” (Canadian Blood Services, priority 2022, published 2025).
Like-named read-outs stand apart in the source and are kept apart here.

Test system: phagocytosis of anti-D-opsonized Rh(D+) red cells by monocytes
Assay: monocyte monolayer assay (MMA), in vitro phagocytosis assay
Assay type: cell-based, human
Parameters: key to Phagocytic index (PI): number of phagocytosed RBCs per 100 monocytes
Conditions: for Phagocytic index (PI): PI = (# of phagocytic red blood cells)/(300 monocytes) * 100; for IC50: 0.5-100 μM, read-out: IC50 for inhibition of phagocytosis
Procedure: The MMA to screen compounds for their ability to inhibit phagocytosis was performed as previously described (Purohit, M. K. et al., Bioorg. Med. Chem. Lett. 2013; 23:2324-7; and Purohit, M. K. et al., Bioorg. Med. Chem. 2014; 22:2739-52.). Briefly, Mononuclear cells (PBMCs) were layered onto chamber slides and monocytes purified by adherence after 1 hr at 37° C. with 5% CO2. Drugs were solubilized in 100% DMSO and then diluted in Roswell Park Memorial Institute (RPMI) to the final concentration of 5 μM, as previously reported (8,9). Corresponding dimethyl sulfoxide (DMSO) volumes in RPMI medium were used as a control. After one hour, indicator Rh-positive red cells opsonized with anti-RhD were added to the chamber slides and then further incubated for 2 hours before fixing and counting phagocytosed red blood cells (RBCs) using phase-contrast microscopy. As a positive control for inhibition, Intravenous immunoglobulin (IVIg) was used, known to inhibit phagocytosis due to blocking of FcγRs. The phagocytosis index (PI) was determined as the number of phagocytosed RBCs in 100 monocytes. The percent inhibition of phagocytosis was determined by comparing the PI in each treated sample to the PI in the untreated sample, which was determined by normalizing the PI concentration in each treated sample (phagocytosis of opsonized RBCs with vehicle only, representing 100 percent phagocytosis.
Concentrations included 100 μM, 50 μM, 25 μM, 10 μM, 5 μM, 2.5 μM, 1 μM, and 0.5 μM.
The 80 selected pyrazole core compounds were screened using a concentration of 5 μM in the in vitro phagocytosis assay, referred to as the monocyte monolayer assay (MMA). Compounds were compared to a standard intravenous immunoglobulin (IVIg) at a concentration of 1 mg/mL.

[1] = Homo sapiens, Monocyte, 5 μM compound, screening of the 80 compounds, read-out: Average inhibition (% ± standard deviation)
[2] = Homo sapiens, Monocyte, 5 μM, anti-D-opsonized Rh(D+) red cells, read-out: Inhibition percentage
[3] = Homo sapiens, Monocyte, dose-inhibitory response

| SMILES | inhibition at 5 µM [1] | further results |
| --- | --- | --- |
| CN(C)C(=O)c1cn(-c2ccccc2)nc1-c1ccccc1 [KB-132] | -9 ± 3.47% | – |
| CCOC(=O)C1=NNC2C(=O)N(CC)C(=O)C12 (centres unmarked) [KB-133] | 24 ± 8.98% | – |
| COC(=O)c1n[nH]c(N)c1Cl [KB-134] | 9 ± 6.99% | – |
| Cc1cc(-c2ccco2)n(-c2ccccc2)n1 [KB-135] | 18 ± 2.7% | – |
| Cc1nn(-c2ccccc2)c2sc(C(=O)NCCO)cc12 [KB-136] | -4 ± 1.82% | – |
| Cc1cc(C)n(S(=O)(=O)c2ccccc2)n1 [KB-137] | 10 ± 1.21% | – |
| Cc1n[nH]c(C)c1Sc1ccc(Cl)cc1 [KB-138] | 38 ± 6.56% | – |
| Cc1cccc(OCCCc2c(C)n[nH]c2C)c1C [KB-139] | 6 ± 3.48% | – |
| CCOc1ccc(NC(=O)c2cnn(-c3ccccc3)c2NC(=O)c2ccco2)cc1 [KB-140] | 31 ± 7.84% | – |
| Cc1cc(C)n(C(=O)COc2ccccc2C)n1 [KB-141] | 36 ± 9.37% | – |
| Cc1cc(C)n(C(=O)c2ccoc2C)n1 [KB-142] | 11 ± 6.51% | – |
| Cc1sc2ncnc(-n3ncc(C#N)c3N)c2c1C [KB-143] | 10 ± 6.87% | – |
| Cc1c(NC(=O)C2CCN(S(=O)(=O)c3cccs3)CC2)c(=O)n(-c2ccccc2)n1C [KB-145] | 4 ± 0.06% | – |
| CCn1cc(Br)c(C(=O)Nc2cc(Cl)ccc2OC)n1 [KB-146] | 10 ± 9.56% | – |
| Cn1ncc(Br)c1C(=O)Oc1ccccc1Cl [KB-147] | 0% | – |
| Cn1cc(Cl)c(C(=O)Nc2ccc(F)cc2F)n1 [KB-148] | 28 ± 9.62% | – |
| Cc1c(Nc2ncnc3c2cnn3-c2ccccc2)c(=O)n(-c2ccccc2)n1C [KB-149] | 0% | – |
| CCn1ncc(Br)c1C(=O)NC1CCCCC1 [KB-150] | 24 ± 8.58% | – |
| COc1ccc(-c2nc(-n3c(C)c(C(C)=O)c(C(C)=O)c3C)sc2C)cc1OC [KB-152] | 2 ± 8.84% | – |
| Cc1cc2c(cc1C)NC(c1c(C)n(C)n(-c3ccccc3)c1=O)C1=C(CC(C)(C)CC1=O)N2 (centres unmarked) [KB-153] | 8 ± 8.3% | – |
| COc1ccc(C2=NN(C(C)=O)C(c3ccco3)C2)cc1OC (centres unmarked) [KB-154] | 2 ± 5.19% | – |
| CCc1ccc(C2CC(c3ccccc3)=NN2S(C)(=O)=O)cc1 (centres unmarked) [KB-155] | 8 ± 9.35% | – |
| CCOC(=O)c1c(N)nn(C(=O)CC)c1-c1ccccc1 [KB-156] | 2 ± 6.64% | – |
| O=C1NC(=O)C2C1C(c1ccc(O)cc1)NN2Cc1ccccc1 (centres unmarked) [KB-157] | 3 ± 9.96% | – |
| COC(=O)N1N=C(C2CCCCC2)CC1(O)C(F)(F)F (centres unmarked) [KB-158] | 0% | – |

| SMILES | inhibition at 5 µM [1] | further results |
| --- | --- | --- |
| CCOC(=O)c1cnn(-c2ccccc2)c1NC(=O)Cc1cccc(OC)c1 [KB-159] | 15 ± 8.4% | – |
| Cn1ncc(I)c1C(=O)Nc1cccc2ccccc12 [KB-160] | -2 ± 5.32% | – |
| CC(=O)N1N=C(c2cccs2)CC1c1ccccc1C (centres unmarked) [KB-161] | 7 ± 8.43% | – |
| CCOC(=O)c1cnn(-c2nc3sc4c(c3c(=O)[nH]2)CCCC4)c1N [KB-162] | -37 ± 2.59% | – |
| Cc1ccc2nc(-c3ccc4c(c3)OCO4)cc(C(=O)Nc3c(C)n(C)n(-c4ccccc4)c3=O)c2c1 [KB-163] | -30 ± 1.77% | – |
| N#CCCn1cc(C(N)=O)c(-c2cccc(Cl)c2)n1 [KB-164] | -3 ± 9.7% | – |
| N#CCCn1cc(C(=O)Nc2nccs2)c(-c2ccc3c(c2)OCCO3)n1 [KB-165] | 33 ± 5.3% | – |
| COc1ccc(NC(=O)c2cn(CCC#N)nc2-c2cccs2)cc1 [KB-166] | 17 ± 3.91% | – |
| Cc1[nH]n(-c2ccccc2)c(=O)c1C1(C(F)(F)F)C(=O)Nc2c1c(=O)[nH]c(=O)n2Cc1ccccc1 (centres unmarked) [KB-167] | 53 ± 4.18% | Phagocytic index (PI) (5 μM): 14; inhibition at 5 µM [2]: 53% |
| Cc1cc(NC(=O)c2cnn3c2NC(c2ccco2)CC3C(F)(F)F)n(-c2ccccc2)n1 (centres unmarked) [KB-168] | 23 ± 3.86% | – |
| Cc1c(NC(=O)c2ccn3c(C(F)(F)F)cc(-c4ccccc4)nc23)c(=O)n(-c2ccccc2)n1C [KB-169] | 0% | – |
| CSc1nc2ccc(S(=O)(=O)Nc3c(C)n(C)n(-c4ccccc4)c3=O)cc2s1 [KB-170] | -13 ± 4.31% | – |
| CCOC(=O)c1cnn(-c2ccccc2)c1NC(=O)CSc1nc(SC)ns1 [KB-171] | 7 ± 0.39% | – |
| COc1ccc(S(=O)(=O)n2cccn2)cc1C(C)(C)C [KB-173] | -8 ± 8.88% | – |
| Cc1nn(C(=O)N(C)C)c(C)c1CN1C(=O)c2ccccc2C1=O [KB-174] | 39 ± 9.53% | – |
| Cc1coc(C)c1C1=NN(S(C)(=O)=O)C(c2cccs2)C1 (centres unmarked) [KB-175] | 50 ± 1.45% | Phagocytic index (PI) (5 μM): 15; inhibition at 5 µM [2]: 50% |
| COc1cc(S(=O)(=O)n2cccn2)c(OC)cc1Cl [KB-176] | -10 ± 7.06% | – |
| CCc1cccc(NS(=O)(=O)c2cnn(CC)c2C)c1 [KB-177] | 4 ± 9.76% | – |
| COc1ccc(CNC(=O)c2c(Cl)cnn2C)cc1OC [KB-178] | 53 ± 5.11% | Phagocytic index (PI) (5 μM): 29; inhibition at 5 µM [2]: 53% |
| CCn1cc(S(=O)(=O)NCCc2ccc(OC)c(OC)c2)cn1 [KB-179] | 53 ± 1.18% | Phagocytic index (PI) (5 μM): 14; inhibition at 5 µM [2]: 53% |
| Cc1nn(C)cc1S(=O)(=O)NCc1ccccc1Cl [KB-180] | -42 ± 8.81% | – |
| CCOC(=O)c1c(C)nn(-c2nc(C)cc(C)n2)c1N [KB-181] | -11 ± 10.3% | Phagocytic index (PI) (5 μM): 37; inhibition at 5 µM [2]: 45% |
| Cn1ccc(C(=O)Nc2ccc3c(c2)OCCO3)n1 [KB-182] | 55 ± 3.65% | Phagocytic index (PI) (5 μM): 28; inhibition at 5 µM [2]: 55% |
| Cc1cc(=O)n(CCN2CCOCC2)c2c1c(C)nn2-c1ccccc1 [KB-183] | -28 ± 9.96% | – |
| CCOC(=O)c1cnn(C)c1NC(=O)C(CC)Sc1cc(C)ncn1 (centres unmarked) [KB-184] | 7 ± 2.92% | – |

| SMILES | inhibition at 5 µM [1] | further results |
| --- | --- | --- |
| COc1ccc(-c2cc(C(=O)O)nn2C2CCS(=O)(=O)C2)cc1 (centres unmarked) [KB-185] | -3 ± 3.6% | – |
| Cc1c(NC(=O)CSc2nc3c(c(=O)[nH]2)CCC3)c(=O)n(-c2ccccc2)n1C [KB-186] | 55 ± 8.43% | Phagocytic index (PI) (5 μM): 28; inhibition at 5 µM [2]: 55% |
| COc1ccccc1-n1nc(C(C)=O)c(C(C)=O)c1C [KB-187] | -16 ± 9.33% | – |
| CC(=O)n1nc(C)c(S(=O)(=O)N2CCCC2)c1C [KB-188] | -26 ± 7.94% | – |
| Cc1nn(C)c(C)c1-c1cc(C(=O)O)[nH]n1 [KB-189] | 52 ± 4.75% | Phagocytic index (PI) (5 μM): 30; inhibition at 5 µM [2]: 52% |
| Cc1nn(-c2ccc3nnc(C)n3n2)c2c1C(c1cccs1)CC(=O)N2 (centres unmarked) [KB-190] | 56 ± 1.24% | Phagocytic index (PI) (5 μM): 27; inhibition at 5 µM [2]: 56% |
| O=c1cc(CSc2nc3ccccc3s2)[nH]c2[nH]n(-c3ccccc3)c(=O)c12 [KB-191] | -23 ± 7.85% | – |
| Cn1ncc(Br)c1C(=O)N1CCCC1c1ccc(F)cc1 (centres unmarked) [KB-192] | -29 ± 9.54% | – |
| COc1cc(-c2cc[nH]n2)cc(OC)c1OC [KB-194] | 39 ± 4.96% | – |
| COc1cccc(-c2cc(C(=O)Nc3cc(C)nn3-c3ccccc3)on2)c1 [KB-195] | 25 ± 6.36% | – |
| Cc1ccccc1C1CCCN1C(=O)Cn1nc(C(F)(F)F)cc1C (centres unmarked) [KB-196] | 24 ± 5.76% | – |
| Cc1c(S(=O)(=O)N2CCCC2c2ccccc2Cl)cnn1C(F)F (centres unmarked) [KB-197] | 45 ± 4.97% | – |
| CCn1nccc1C1CCCN1S(=O)(=O)c1cc(C)c(C)cc1C (centres unmarked) [KB-198] | 75 ± 4.76% | Phagocytic index (PI) (5 μM): 9; IC50 [3]: 8.43 µM; inhibition at 5 µM [2]: 75%; EC50 [3]: > 10 µM |
| CCn1nccc1C1CCCN1S(=O)(=O)c1cc(C)ccc1C (centres unmarked) [KB-198a] | – | IC50 [3]: 227 µM |
| CCOC(=O)c1cnn(-c2ncnc3c2cnn3-c2ccc(F)cc2)c1N [KB-199] | 40 ± 5.46% | Phagocytic index (PI) (5 μM): 40; inhibition at 5 µM [2]: 40% |
| COc1ccccc1-c1cc(C(=O)Nc2c(C)n(C)n(-c3ccccc3)c2=O)no1 [KB-200] | 31 ± 1.84% | – |
| CN(C)CCNC(=O)c1cc(-c2ccc(Cl)cc2)nn1-c1ccccc1 [KB-201] | 0% | – |
| CNC(=O)c1cc(-c2cccs2)[nH]n1 [KB-202] | 33 ± 2.31% | – |
| O=C(NCc1ccncc1)c1cnn(-c2ccccc2F)c1-n1cccc1 [KB-203] | 27 ± 2.72% | – |
| O=C(Nc1ccncc1)c1cc(C2CC2)nn1-c1ccccc1 [KB-204] | 36 ± 3.6% | – |
| CC(CCc1ccccc1)NC(=O)c1cnn(C)c1-n1cccc1 (centres unmarked) [KB-205] | 47 ± 0.98% | Phagocytic index (PI) (5 μM): 19; inhibition at 5 µM [2]: 47% |
| CC(C)c1cc(C(=O)Nc2nnc(C3CCCO3)s2)n(-c2ccccc2)n1 (centres unmarked) [KB-206] | 50 ± 5.46% | Phagocytic index (PI) (5 μM): 18; inhibition at 5 µM [2]: 50% |
| COCc1nnc(NC(=O)c2cnn(C)c2-n2cccc2)s1 [KB-207] | 14 ± 1.86% | – |
| Nc1c(C(=O)O)cnn1-c1ccc(F)cc1F [KB-209] | 50 ± 1.02% | Phagocytic index (PI) (5 μM): 18; inhibition at 5 µM [2]: 50% |
